From patent publication US20150118215A1, “Methods of Inhibiting Cell Proliferation” (The General Hospital Corporation, priority 2012, published 2015)
Like-named read-outs stand apart in the source and are kept apart here.

What was measured:
Human NSCLC A549 cells = assay: Cell proliferation assays (MTT, direct cell counting); assay type: cell-based; details: A549, wild-type EGFR, KRas-G12S; three days treatment
Procedure: Cell Proliferation Assays—
First, MTT proliferation assay was carried out using cell growth determination kit according to manufacturer instructions (Sigma). Human NSCLC A549 cells which are expressing wild-type EGFR with KRas-G12S activation mutation were studied in these experiments. […] Medium was changed daily for three days, and cells were stained with MTT and DAPI when indicated.
Second, direct cells counting assays were also performed as follows. Microscopic images of 0.317 mm^2 area each well were acquired for MTT stained cells and cells were counted using ImageJ (NIH). […] Alternatively, the cells were stained with DAPI and microscopic images of whole wells were acquired using DeltaVision system (Applied Precision). Cells were counted using Particle Tracker PlugIn for ImageJ as above (FIG. 13).

PC-9 xenografts = details: Bill et al.; cited from earlier work
[1] = tested on: gefitinib-resistant NSCLC A549 cells; details: Bill et al. 2012; cited from earlier work
[2] = tested on: gefitinib-resistant NSCLC H460 cells; details: Bill et al. 2012; cited from earlier work
H460 xenografts = details: Bill et al.; cited from earlier work
cytohesin-2 = biological target: T1, cytohesin-2 (Homo sapiens, UniProt Q99418); assay: Radiolabel-based GEF-activity assay ([35S]-GTPγS binding) of full-length cytohesin-2 with myr-Arf1 or myr-Arf6; assay type: biochemical
T1 construct: steady-state enzymatic GEF-activity analysis of full-length cytohesin-2 or Sec7 domain with Arf1 and Arf6; made in house; host or cells: E. coli BL21DE3
T1 sequence (Q99418 1-400): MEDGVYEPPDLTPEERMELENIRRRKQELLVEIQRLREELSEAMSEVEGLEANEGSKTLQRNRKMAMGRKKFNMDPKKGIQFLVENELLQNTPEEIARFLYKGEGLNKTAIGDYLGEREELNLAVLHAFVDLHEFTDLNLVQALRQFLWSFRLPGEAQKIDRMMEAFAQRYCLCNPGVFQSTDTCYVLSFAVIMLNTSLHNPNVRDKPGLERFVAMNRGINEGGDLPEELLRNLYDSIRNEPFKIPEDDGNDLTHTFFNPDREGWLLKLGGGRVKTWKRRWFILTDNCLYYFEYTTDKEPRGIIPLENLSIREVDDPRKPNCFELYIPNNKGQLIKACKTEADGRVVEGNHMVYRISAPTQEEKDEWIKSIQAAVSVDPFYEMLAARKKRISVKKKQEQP
Procedure: Two assays were used to determine the GDP/GTP-exchange activity of both full-length cytohesin-2 and Sec7 domain.
a) Radiolabel-Based Assay.
The lipids were dissolved in chloroform. […] Proteins were trapped on nitrocellulose filters.
To test the potential signaling between V-ATPase and cytohesin-2/Arf GTP-binding proteins, a GEF-activity assay was established for cytohesin-2 (wt) and myristoylated myr-Arf6 (wt) and myr-Arf1 (wt) GTP-binding proteins (FIG. 2A). Human Arf1 was co-expressed with yeast N-myristoyltransferase in E. coli BL21/DE3 strain. Recombinant myr-Arf1 was purified from the E. coli lysate (A1) using an AKTApurifier equipped with HiTrapQ, Superdex200 columns (A2), and Phenyl Sepharose HP column (A3). Human Arf6 was also co-expressed with yeast N-myristoyltransferase in E. coli BL21/DE3 strain. Recombinant myr-Arf6 was extracted from insoluble fraction using Triton X-100 (B1). The extract was precipitated by 35% ammonium sulfate and myr-Arf6 purified with HiTrapQ column (B2). […] Several soluble, cell permeable and fluorescently labeled a2N1-17 derived peptides were synthesized, which were used in the current GEF-activity and structural studies in vitro.

lung cancer cells = details: SecinH3 or cytohesin-2 knock-down; Bill et al.; cited from earlier work
EGFR/ErbB-signaling = details: SecinH3 or cytohesin-2 knock-down; Bill et al.; cited from earlier work
tumor xenografts = details: SecinH3 or cytohesin-2 knock-down; Bill et al.; cited from earlier work
[3] = biological target: T2, Sec7 domain of cytohesin-2 (Homo sapiens, UniProt Q99418); assay: Tryptophan fluorescence-based GTPγS binding (GEF-activity) assay of Sec7 domain; assay type: biochemical; details: purified Sec7 domain; truncated [Δ17]Arf1 as substrate; read-out: IC50, inhibition of enzymatic GEF-activity of Sec7 with [Δ17]Arf1
T2 construct: The Sec7 domain of human cytohesin-2 (61-252aa) was expressed in BL21/DE3 cells; GST (N, cleaved yes); made in house; host or cells: E. coli BL21/DE3
T2 sequence (Q99418 61-252): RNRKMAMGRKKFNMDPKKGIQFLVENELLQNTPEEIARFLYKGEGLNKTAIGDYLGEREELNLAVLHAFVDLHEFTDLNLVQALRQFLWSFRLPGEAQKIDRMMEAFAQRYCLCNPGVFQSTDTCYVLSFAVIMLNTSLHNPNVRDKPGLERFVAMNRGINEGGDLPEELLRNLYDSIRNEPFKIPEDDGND
Excerpt: b) Tryptophan Fluorescence-Based GTPγS Binding Assay.
In this assay, exchange is followed in real time. […] These are soluble in both GDP and GTP bound forms (myr Arf-GTP requires a hydrophobic surface for stability) allowing exchange to occur in the absence of lipid or detergent, which is desirable because lipid or detergent can scatter light and possibly confound interpretation of changes in fluorescence. To monitor tryptophan fluorescence, the fluorescent spectra of [Δ17]Arf1 in GDP-bound and GTPγS-bound forms were obtained at an excitation wavelength of 285 nm using a PTI spectrofluorimeter. […] Measurements were performed at 37° C. in 50 mM HEPES-KOH, 100 mM KCl, 1 mM MgCl2, 1 mM DTT, 10 μM GTPγS, 1 μM [Δ17]Arf1 or [Δ13]Arf6 and 10 nM Sec7-domain. […] Data were fitted by single exponential curve and analyzed using Microsoft Excel.
This assay allows real-time measurements of the GEF Sec7 domain-induced nucleotide exchange. [Δ17]Arf1 and [Δ13]Arf6, which are soluble in the GTP-bound form, were used as substrates, thereby eliminating the need for phospholipid or detergent in the assay. […] Activation of [Δ17]Arf1 or [Δ13]Arf6 from the GDP-bound form to the GTPγS-bound form was monitored by tryptophan fluorescence (emission/excitation wavelengths of 285/335 nm) (FIG. 3A).

IC50 (cytohesin-2; myr-Arf1 as substrate, azolectin, read-out: IC50, inhibition of enzymatic GEF-activity of cytohesin-2 with myr-Arf1): > 150 µM
IC50 (cytohesin-2; myr-Arf6 as substrate, PIP2-containing liposomes, read-out: IC50, inhibition of enzymatic GEF-activity of cytohesin-2 with myr-Arf6): > 150 µM
IC50 [3]: 6.9 µM
Compound: COc1nc(-c2ccc3c(c2)OCO3)n(-c2ccc(NC(=O)CSc3ccccc3)cc2)n1 [SecinH3]
inhibition of proliferation of human lung cancer A549 cells (Human NSCLC A549 cells): anti-proliferative action
action in vivo in mice bearing PC-9 xenografts (PC-9 xenografts): anti-proliferative and pro-apoptotic action
proliferation of gefitinib-resistant NSCLC A549 cells [1]: efficiently reduced
proliferation of gefitinib-resistant NSCLC H460 cells [2]: efficiently reduced
action in vivo in mice bearing H460 xenografts (H460 xenografts): anti-proliferative and pro-apoptotic action
cancer cell proliferation in vitro (lung cancer cells): suppression
EGFR/ErbB-signaling (EGFR/ErbB-signaling): reduction
growth of tumor xenografts in nude mice model in vivo (tumor xenografts): reduction of growth
